The values below come from publication PMC2192098 (The Journal of Experimental Medicine, 1995).

For one data set, the target named is T1, FMLPR in HepG2 cells (Homo sapiens, UniProt P21462).
T1 sequence (P21462 1-350): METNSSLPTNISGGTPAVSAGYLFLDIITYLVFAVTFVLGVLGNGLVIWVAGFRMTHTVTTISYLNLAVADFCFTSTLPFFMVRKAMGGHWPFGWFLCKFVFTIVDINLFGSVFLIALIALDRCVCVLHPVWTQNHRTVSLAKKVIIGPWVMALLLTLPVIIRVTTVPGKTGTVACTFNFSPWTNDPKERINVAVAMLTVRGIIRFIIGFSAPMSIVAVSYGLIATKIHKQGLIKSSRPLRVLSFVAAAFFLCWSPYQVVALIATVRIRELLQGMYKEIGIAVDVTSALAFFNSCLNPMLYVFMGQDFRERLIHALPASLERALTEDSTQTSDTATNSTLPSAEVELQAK
Put plainly: Binding of radioiodinated FMLP analogue to HepG2 cells.

A further data set relates to HepG2 cells. To be noted: cell lines such as HepG2; cited from earlier work.
Data set [1] deals with HepG2 cells; albumin synthesis. The data set is described as follows: Albumin synthesis in HepG2 cells. To be noted: for time at which decrease in albumin synthesis becomes evident: C5a or FMLP 10 nM, Fig. 6. It is filed as cell-based, human.
Data set [2] has as its system HepG2 cells; acute phase protein synthesis. The data set is described as follows: Synthesis of acute phase proteins in HepG2 cells. To be noted: for effect on C3 and albumin synthesis at higher concentrations: higher concentrations of chemotactic peptides, data not shown. It is filed as cell-based, human.
The subject of data set [3] is HepG2 cells; transferrin synthesis. The data set is described as follows: Transferrin synthesis in HepG2 cells. As to conditions: HepG2, 6 h, 37°C; 1 and 10 nM; Fig. 7. It is filed as cell-based, human.
Data set [4] deals with HepG2 cells; fibrinogen and C4 synthesis. The data set is described as follows: Fibrinogen and C4 synthesis in HepG2 cells. Format: cell-based, human. As to conditions: data not shown.
In data set [5] the test system is HepG2 cells; serum amyloid A or C-reactive protein synthesis. Put plainly: Serum amyloid A and C-reactive protein synthesis in HepG2 cells. Format: cell-based, human. As to conditions: data not shown.
Data set [6] concerns HepG2 cells; complement Bf synthesis. The data set is described as follows: Complement Bf synthesis in HepG2 cells. Format: cell-based, human. As to conditions: HepG2, 6 h, 37°C; 1 and 10 nM; Fig. 7.
Data set [7] relates to HepG2 cells; C5 synthesis. The data set is described as follows: C5 synthesis in HepG2 cells. It is filed as cell-based, human. To be noted: HepG2, 6 h, 37°C; 1 and 10 nM; Fig. 7.
Data set [8] has as its system HepG2 cells; alpha1-AT synthesis. Put plainly: alpha1-antitrypsin. Format: cell-based, human. As to conditions: HepG2, 6 h, 37°C; 1 and 10 nM; Fig. 7.
In data set [9] the test system is HepG2 cells; alpha 1-antichymotrypsin synthesis. Put plainly: alpha1-antichymotrypsin. To be noted: HepG2, 6 h, 37°C. Format: cell-based, human.
The subject of data set [10] is HepG2 cells; complement C3 synthesis. The data set is described as follows: C3 synthesis in HepG2 cells. As to conditions: for time at which increase in C3 synthesis becomes evident: C5a or FMLP 10 nM, HepG2, 37°C, Fig. 6; for effect on C3 synthesis: HepG2, 6 h, 37°C, 1 and 10 nM, Fig. 7. It is filed as cell-based, human.
A further data set deals with neutrophils. As to conditions: cited from earlier work.
For data set [11], the system named is C5a and FMLP receptor-activated signal transduction pathways. As to conditions: background statement, no reference given; cited from earlier work.
Data set [12] deals with HepG2 cells; alpha 1-antichymotrypsin synthesis. To be noted: lower doses of IL-6; cited from earlier work.
In the next data set the test system is C5aR in HepG2 cells. As to conditions: cited from earlier work.
For data set [13], the system named is vascular tissue, smooth muscle, mast cells. To be noted: cited from earlier work.
The test system of another data set is human endothelial cells. As to conditions: cited from earlier work.
Where [14] appears, read: HepG2, 37°C, 10 h, serum-free, C5a or FMLP 1 and 10 nM, Fig. 5.
The mark [15] stands for this setting: HepG2, 6 h, 37°C, 1 and 10 nM, Fig. 7.
Setting [16] is: HepG2, 10 h, IL-1β 10 ng/ml + IL-6 10 ng/ml as positive control, Fig. 5.

Regarding “formylNLe-Leu-Phe-NLe-Tyr-Lys [radioiodinated FMLP analogue]”, the “binding of radioiodinated FMLP analogue to HepG2 cells” value at FMLPR in HepG2 cells (HepG2, 2 h at 4°C, Fig. 3A) was “specific and saturable binding”. Moreover, the “plasma membrane receptors per cell (R)” value at FMLPR in HepG2 cells (Scatchard plot, HepG2, 2 h at 4°C) is reported as ~6,000 plasma membrane receptors per cell. For the same molecule, the equilibrium dissociation constant (Kd) (in general, the free concentration of one partner at which half of the binding sites on the other are occupied at equilibrium, for simple one-to-one binding) at FMLPR in HepG2 cells (Scatchard plot, HepG2 monolayers, 2 h at 4°C, DMEM, 10 mM Hepes, pH 7.2, 1 mg/ml BSA, 0.05% Tween 80, nonspecific: 200-fold (Fig. 3: 250-fold) molar excess unlabeled FMLP, gamma counting) was roughly 2.47 nM.
Turning to “IL-I~: cytokine (interleukin-1 beta; scan error)”, in the data set with HepG2 cells, the “changes in expression of acute phase genes” value (“changes in expression” below) is recorded as “changes in expression of at least several if not many acute phase genes”.
On to “formyl-methionyl-leucyl-phenylalanine [FMLP, reference compound]”, for which, in data set [1] (HepG2, 37°C), the “time at which decrease in albumin synthesis becomes evident” value is reported as 6 h. Besides, the “effect on albumin synthesis” value in [1] (setting [14]) is listed as “concentration-dependent decreases in synthesis of albumin”. Besides, in data set [1] (setting [15]), the “effect on albumin synthesis” value is listed as “decreases”. Further, the “concentration at which effect on albumin biosynthesis was first evident” value in [1] (HepG2, 10 h, Fig. 5) is reported as 1 nM. Also, the “magnitude of effect on albumin synthesis vs combination of IL-1β and IL-6” value in [1] (setting [16]) is “less than but comparable”. Besides, the “lowest concentration with evident effect on synthesis of acute phase proteins” value in data set [2] (abstract) was found to be 1 nM. The “effect on C3 and albumin synthesis at higher concentrations” value in [2] is recorded as “dissipation of the effect”. Also, the “effect on transferrin synthesis” value in data set [3] is “decreases”. The “effect on fibrinogen and C4 synthesis” value in data set [4] is “minimally and inconsistently increased”. Moreover, the “induction of serum amyloid A or C-reactive protein synthesis” value in [5] is given as “no evidence for induc- tion”. Further, in [6], the “effect on complement Bf synthesis” value was “increases”. For the same molecule, the “effect on C5 synthesis” value in data set [7] is listed as “no effect”. Further, the “effect on alpha1-AT synthesis” value in data set [8] is “no effect”. Also, the “alpha1-ACT synthesis at higher (supersaturating) concentrations” value in data set [9] (FMLP above 20 nM, Fig. 9 left) was “returns to control levels”. The “effect on alpha1-ACT synthesis” value in data set [9] (1 and 10 nM, Fig. 7) is “increases”. In data set [10], the “time at which increase in C3 synthesis becomes evident” value was 6 h and the “effect on C3 synthesis” value is recorded as “increases”. Moreover, the “magnitude of effect on C3 synthesis vs combined effect of IL-1β and IL-6” value in data set [10] (setting [16]) is recorded as “less than but comparable in magnitude”. In addition, in the data set with neutrophils, the “effect on neutrophil chemotaxis at supersaturating concentrations” value is reported as “abrogated at supersaturating concentra- tions”; the neutrophil program activated result was “directed cell migration, release of active oxy- gen intermediates, and release of proteolytic and phlogistic granular contents”.
pertussis toxin: in data set [11], the “inhibition of C5a/FMLP receptor signal transduction” value was “is inhibited by pertussis toxin”.
Turning to “IL-6: prototype acute phase cytokine IL-6”, the “changes in expression” value in the data set on HepG2 cells is recorded as “changes in expression of at least several if not many acute phase genes”. Besides, the “effect on alpha1-ACT synthesis at lower doses” value in data set [12] is given as “con- centration dependent at lower doses”. Moreover, the “concentration of maximal effect on alpha1-ACT synthesis” value in data set [9] (Fig. 9 right) is reported as 0.2 /xg/ml. Further, the “effect on alpha1-ACT synthesis” value in data set [9] (IL-6, several concentrations from 0.2 μg/ml, Fig. 9 right) is recorded as “increase”.
Regarding leukemia inhibitory factor: cytokine, in the data set with HepG2 cells, the “changes in expression” value is recorded as “changes in expression of at least several if not many acute phase genes”.

B1: IL-lc~: cytokine (interleukin-1 alpha; scan error) (protein, UniProt P01583 113-271, looked up)
Interleukin-1 alpha: SAPFSFLSNVKYNFMRIIKYEFILNDALNQSIIRANDQYLTAAALHNLDEAVKFDMGAYKSSKDDAKITVILRISKTQLYVTAQDEDQPVLLKEMPEIPKTITGSETNLLFFWETHGTKNYFTSVAHPNLFIATKQDYWVCLAGGPPSITDFQILENQA
On to B1, for which the “changes in expression” value with HepG2 cells is “changes in expression of at least several if not many acute phase genes”.

B2: C5a: 11,200-D cationic glycopeptide from the first 74 residues of the C5 alpha chain; recombinant human C5a (Sigma) used (protein, UniProt P01031 678-751, looked up)
C5a anaphylatoxin: TLQKKIEEIAAKYKHSVVKKCCYDGACVNNDETCEQRAARISLGPRCIKAFTECCVVASQLRANISHKDMQLGR
modifications: C5a anaphylatoxin
In the case of B2, the “time at which decrease in albumin synthesis becomes evident” value in data set [1] (HepG2, 37°C) is 6 h. For the same molecule, in data set [1] (setting [14]), the “effect on albumin synthesis” value is recorded as “concentration-dependent decreases in synthesis of albumin”. The “effect on albumin synthesis” value in [1] (setting [15]) is listed as “decreases”. Also, the “effect on C3 and albumin synthesis at higher concentrations” value in [2] was “dissipation of the effect”. Also, the “effect on transferrin synthesis” value in [3] is recorded as “decreases”. In addition, the “effect on fibrinogen and C4 synthesis” value in [4] is “minimally and inconsistently increased”. In addition, in the data set with C5aR in HepG2 cells, the “inhibition of binding of 125I-C5a to HepG2 cells” value is reported as “inhibit binding”. Moreover, the “induction of serum amyloid A or C-reactive protein synthesis” value in data set [5] was “no evidence for induc- tion”. Further, the “effect on complement Bf synthesis” value in data set [6] is on record as “increases”. The “effect on C5 synthesis” value in data set [7] is reported as “no effect”. In data set [8], the “effect on alpha1-AT synthesis” value is “no effect”. For the same molecule, in data set [13], the “histamine release from mast cells” value was “releaseofhistamine from mast cells”, the smooth muscle contraction result is recorded as “smooth muscle contraction”, the vascular permeability entry is “increasedvascularpermeability” and the vasodilatation entry was “vasodilatation”. Further, the “binding to human endothelial cells” value with human endothelial cells is “binds to human endothelial cells”. The “effect on alpha1-ACT synthesis” value in data set [9] (1 and 10 nM, Fig. 7) was “increases”. In data set [10], the “time at which increase in C3 synthesis becomes evident” value is on record as 6 h and the “effect on C3 synthesis” value is listed as “increases”. In the data set on neutrophils, the “effect on neutrophil chemotaxis at supersaturating concentrations” value was “abrogated at supersaturating concentra- tions”; the neutrophil activities mediated entry was “chemotactic ac- tivity, phagocytic activity, release of active oxygen inter- mediates, release of granular enzymes, and increase in adhesion/aggregationproperties in neutrophils”.

B3: IL-11: cytokine (protein, UniProt P20809 22-199, looked up)
Interleukin-11: PGPPPGPPRVSPDPRAELDSTVLLTRSLLADTRQLAAQLRDKFPADGDHNLDSLPTLAMSAGALGALQLPGVLTRLRADLLSYLRHVQWLRRAGGSSLKTLEPELGTLQARLDRLLRRLQLLMSRLALPQPPPDPPAPPLAPPSSAWGGIRAAHAILGGLHLTLDWAVRGLLLLKTRL
Take B3: the “changes in expression” value in the data set with HepG2 cells was “changes in expression of at least several if not many acute phase genes”.

B4: oncostain M: cytokine (protein, UniProt P13725 26-221, looked up)
Oncostatin-M: AAIGSCSKEYRVLLGQLQKQTDLMQDTSRLLDPYIRIQGLDVPKLREHCRERPGAFPSEETLRGLGRRGFLQTLNATLGCVLHRLADLEQRLPKAQDLERSGLNIEDLEKLQMARPNILGLRNNIYCMAQLLDNSDTAEPTKAGRGASQPPTPTPASDAFQRKLEGCRFLHGYHRFMHSVGRVFSKWGESPNRSRR
As for B4, the “changes in expression” value in the data set on HepG2 cells is listed as “changes in expression of at least several if not many acute phase genes”.
